Results published in patent publication US20190194148A1, “TETRAZOLE-CONTAINING 1,2-CYCLOPROPANE-CARBOXAMIDES” (Bayer Pharma Aktiengesellschaft, priority 2017, published 2019).

Biological target: T1, human B1 receptor (Homo sapiens, UniProt P46663)
T1 construct: host or cells: CHO-K1
T1 sequence (P46663 1-353): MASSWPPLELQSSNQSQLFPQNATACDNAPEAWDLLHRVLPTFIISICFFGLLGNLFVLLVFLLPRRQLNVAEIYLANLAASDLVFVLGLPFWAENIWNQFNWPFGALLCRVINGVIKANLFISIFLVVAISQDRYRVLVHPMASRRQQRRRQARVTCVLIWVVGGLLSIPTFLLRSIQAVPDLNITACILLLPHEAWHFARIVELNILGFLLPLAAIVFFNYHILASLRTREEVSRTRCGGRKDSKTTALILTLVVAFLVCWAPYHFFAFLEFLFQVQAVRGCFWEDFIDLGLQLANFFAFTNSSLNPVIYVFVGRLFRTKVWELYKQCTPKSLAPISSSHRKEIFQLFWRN
Assay: Calcium flux assay (FLIPR) with recombinant CHO-K1 cells expressing human B1 receptor
Type: cell-based
Conditions: absence of 0.1% BSA in assay buffer, read-out: hB1 free IC50
Experimental: The potency to inhibit the Bradykinin B1 receptors was determined for the example compounds of this invention in a cell-based fluorescent calcium-mobilisation assay. The assay measures the ability of example compounds to inhibit Bradykinin B1 receptor agonist-induced increase of intracellular free Ca^2+ in the cell line expressing B1 receptor. Specifically, calcium indicator-loaded cells are pre-incubated in the absence or presence of different concentrations of example compounds followed by the stimulation with a selective B1 receptor agonist peptide. The change of the intracellular Ca^2+ concentration is monitored with a fluorescent plate reader FLIPR (Molecular Devices).
Calcium Flux Assays (FLIPR) with Cells Expressing Bradykinin B1 Receptor Calcium Flux Assay (FLIPR) with Recombinant Cells for Bradykinin B1 Receptor Antagonist, Either in the Presence (hB1 IC50) or Absence (hB1 free IC50) of 0.1% Bovine Serum Albumin (BSA) in Assay Buffer
CHO-K1 cell line expressing human B1 receptor was purchased from Euroscreen (Gosselies, Belgium, with reference name hB1-D1). The cells were grown in Nutrient Mixture Ham's F12 (Sigma) containing 10% Foetal bovine serum (Sigma) and 400 μg/mL G418 (Sigma), 5 μg/mL puromycin (Sigma).
For the calcium flux assay, 80% confluent cells were detached from the culture vessels with Versene (Gibco), and seeded into 384-well plates (Cell binding Surface; Corning, N.Y.; #3683) at a density of 15,000 cells per well. Cells were seeded in a volume of 50 μL in medium without antibiotics and incubated overnight in a humidified atmosphere with 5% CO2 at 37° C. […] The calcium indicator loaded cells were incubated at 37° C. for 2 hrs. Extracellular dye was then removed and each well was filled with 45 μL of assay buffer. Cell plates were kept in dark until used. Example compounds were assayed at 8 concentrations in triplicate. Serial 10-fold dilutions in 100% DMSO were made at a 100-times higher concentration than the final concentration, and then diluted 1:10 in assay buffer. 5 μL of each diluted compound was added to the well of cell plates (yielding final concentration with 1% DMSO), and incubated for 30 min at 28° C. before the addition of B1 receptor agonist on the FLIPR instrument.
Agonist plates contained the agonist Lys-(Des-Arg)-Bradykinin (Bachem, Brackley) at 3.5×EC90 in assay buffer with 1% DMSO. The addition of agonist 20 μl per well to the assay plate was carried out on the FLIPR instrument while continuously monitoring Ca^2+-dependent fluorescence at 538 nm. A peptide antagonist Lys-(Des-Arg-Leu)-Bradykinin (Bachem, Brackley) at 20 μM was used to determine the full inhibition as control.
Peak fluorescence was used to determine the response to agonist obtained at each concentration of example compound by the following equation:
% Response=100*(RFU(example compound)−RFU(control)/(RFU(DMSO)−RFU(control)
Control=full inhibition by the peptide antagonist Lys-(Des-Arg-Leu)-Bradykinin at 20 μM
The response values were plotted against the logarithm of the compound concentrations. The compounds were tested in triplicates per plate and mean values were plotted in Excel XLfit to determine IC50 values, percentage of maximal inhibition and the Hill slopes.

Compound | IC50 [nM]
COc1ccc(-c2ccc(NC(=O)C3CC3c3ccccc3C)cc2-c2nnn[nH]2)cc1OC (racemic) [Example 4, N-[3′,4′-dimethoxy-2-(1H-tetrazol-5-yl)biphenyl-4-yl]-2-(2-methylphenyl)cyclopro-panecarboxamide] | 12
COc1ccc(-c2ccc(NC(=O)C3CC3c3ccccc3OC(F)(F)F)cc2-c2nnn[nH]2)cc1OC (racemic) [Example 6, N-[3′,4′-dimethoxy-2-(1H-tetrazol-5-yl)biphenyl-4-yl]-2-[2-(trifluoromethoxy)phen-yl]cyclopropane-carboxamide] | 6
COc1ccc(-c2ccc(NC(=O)C3CC3c3cccc(C)c3)cc2-c2nnn[nH]2)cc1OC (racemic) [Example 7, N-[3′,4′-dimethoxy-2-(1H-tetrazol-5-yl)biphenyl-4-yl]-2-(3-methylphenyl)cyclopro-panecarboxamide] | 6
CCOc1ncc(-c2ccc(NC(=O)C3CC3c3ccc(Cl)cc3)cc2-c2nnn[nH]2)cn1 (racemic) [Example 27, 2-(4-Chlorophenyl)-N-[4-(2-ethoxypyrimidin-5-yl)-3-(1H-tetrazol-5-yl)phenyl]cyclopropane-carboxamide] | 13
O=C(Nc1ccc(-c2ccc(C(F)(F)F)nc2)c(-c2nnn[nH]2)c1)C1CC1c1ccccc1 (racemic) [Example 28, 2-Phenyl-N-{3-(1H-tetrazol-5-yl)-4-[6-(trifluoromethyl)pyridin-3-yl]phenyl}cyclopro-panecarboxamide] | 509
CC1(C(=O)Nc2ccc(-c3ccc(C(F)(F)F)nc3)c(-c3nnn[nH]3)c2)CC1c1ccccc1 (racemic) [Example 29, 1-Methyl-2-phenyl-N-{3-(1H-tetrazol-5-yl)-4-[6-(trifluoromethyl)pyridin-3-yl]phenyl}cyclopro-panecarboxamide] | 526
O=C(Nc1ccc(-c2ccc(C(F)(F)F)nc2)c(-c2nnn[nH]2)c1)C1CC1C1CCCCC1 (racemic) [Example 30, 2-Cyclohexyl-N-{3-(1H-tetrazol-5-yl)-4-[6-(trifluoromethyl)pyridin-3-yl]phenyl}cyclopro-panecarboxamide] | 514

Same assay, conditions: presence of 0.1% BSA in assay buffer, read-out: hB1 IC50

Compound | IC50 [nM]
COc1ccc(-c2ccc(NC(=O)C3CC3c3ccccc3)cc2-c2nnn[nH]2)cc1OC (racemic) [Example 1, N[3′,4′-dimethoxy-2-(1H-tetrazol-5-yl)biphenyl-4-yl]-2-phenylcyclopropanecarboxamide] | 209
COc1ccc(-c2ccc(NC(=O)C3CC3c3cnn(C)c3)cc2-c2nnn[nH]2)cc1OC (racemic) [Example 2, N-[3′,4′-dimethoxy-2-(1H-tetrazol-5-yl)biphenyl-4-yl]-2-(1-methyl-1H-pyrazol-4-yl)cyclopropanecarbox-amide] | 2120
COc1ccc(-c2ccc(NC(=O)C3CC3c3ccccc3F)cc2-c2nnn[nH]2)cc1OC (racemic) [Example 3, N-[3′,4′-dimethoxy-2-(1H-tetrazol-5-yl)biphenyl-4-yl]-2-(2-fluorophenyl)cyclopro-panecarboxamide] | 101
COc1ccc(-c2ccc(NC(=O)C3CC3c3ccccc3C)cc2-c2nnn[nH]2)cc1OC (racemic) [Example 4, N-[3′,4′-dimethoxy-2-(1H-tetrazol-5-yl)biphenyl-4-yl]-2-(2-methylphenyl)cyclopro-panecarboxamide] | 27
CCc1ccccc1C1CC1C(=O)Nc1ccc(-c2ccc(OC)c(OC)c2)c(-c2nnn[nH]2)c1 (racemic) [Example 5, N-[3′,4′-dimethoxy-2-(1H-tetrazol-5-yl)biphenyl-4-yl]-2-(2-ethylphenyl)cyclopro-panecarboxamide] | 16
COc1ccc(-c2ccc(NC(=O)C3CC3c3ccccc3OC(F)(F)F)cc2-c2nnn[nH]2)cc1OC (racemic) [Example 6, N-[3′,4′-dimethoxy-2-(1H-tetrazol-5-yl)biphenyl-4-yl]-2-[2-(trifluoromethoxy)phen-yl]cyclopropane-carboxamide] | 20
COc1ccc(-c2ccc(NC(=O)C3CC3c3cccc(C)c3)cc2-c2nnn[nH]2)cc1OC (racemic) [Example 7, N-[3′,4′-dimethoxy-2-(1H-tetrazol-5-yl)biphenyl-4-yl]-2-(3-methylphenyl)cyclopro-panecarboxamide] | 19
COc1ccc(-c2ccc(NC(=O)C3CC3c3ccc(Cl)cc3)cc2-c2nnn[nH]2)cc1OC (racemic) [Example 9, 2-(4-chlorophenyl)-N-[3′,4′-dimethoxy-2-(1H-tetrazol-5-yl)biphenyl-4-yl]cyclo-propanecarboxamide] | 19
COc1ccc(-c2ccc(NC(=O)C3CC3c3ccc(C)cc3)cc2-c2nnn[nH]2)cc1OC (racemic) [Example 10, N-[3′,4′-dimethoxy-2-(1H-tetrazol-5-yl)biphenyl-4-yl]-2-(4-methylphenyl)cyclopro-panecarboxamide] | 33
COc1ccc(-c2ccc(NC(=O)C3CC3c3ccc(F)cc3)cc2-c2nnn[nH]2)cc1OC (racemic) [Example 11, N-[3′,4′-dimethoxy-2-(1H-tetrazol-5-yl)biphenyl-4-yl]-2-(4-fluorophenyl)cyclopro-panecarboxamide] | 95
CCc1ccc(C2CC2C(=O)Nc2ccc(-c3ccc(OC)c(OC)c3)c(-c3nnn[nH]3)c2)cc1 (racemic) [Example 12, N-[3′,4′-dimethoxy-2-(1H-tetrazol-5-yl)biphenyl-4-yl]-2-(4-ethylphenyl)cyclopro-panecarboxamide] | 341
COc1ccc(C2CC2C(=O)Nc2ccc(-c3ccc(OC)c(OC)c3)c(-c3nnn[nH]3)c2)cc1 (racemic) [Example 13, N-[3′,4′-dimethoxy-2-(1H-tetrazol-5-yl)biphenyl-4-yl]-2-(4-methoxyphenyl)cyclo-propanecarboxamide] | 1050
CCOc1ccc(-c2ccc(NC(=O)C3CC3c3ccc(F)cc3)cc2-c2nnn[nH]2)cn1 (racemic) [Example 16, N-[4-(6-ethoxypyridin-3-yl)-3-(1H-tetrazol-5-yl)phenyl]-2-(4-fluorophenyl)cyclopro-panecarboxamide] | 15
CCOc1ccc(-c2ccc(NC(=O)C3CC3C3CCCCC3)cc2-c2nnn[nH]2)cn1 (racemic) [Example 20, 2-Cyclohexyl-N-[4-(6-ethoxypyridin-3-yl)-3-(1H-tetrazol-5-yl)phenyl]cyclopro-panecarboxamide] | 389
CCOc1cncc(-c2ccc(NC(=O)C3CC3c3ccc(Cl)cc3)cc2-c2nnn[nH]2)c1 (racemic) [Example 22, 2-(4-Chlorophenyl)-N-[4-(5-ethoxypyridin-3-yl)-3-(1H-tetrazol-5-yl)phenyl]cyclopro-panecarboxamide] | 603
CCOc1cncc(-c2ccc(NC(=O)C3CC3c3cccc(C)c3)cc2-c2nnn[nH]2)c1 (racemic) [Example 23, N-[4-(5-Ethoxypyridin-3-yl)-3-(1H-tetrazol-5-yl)phenyl]-2-(3-methylphenyl)cyclopro-panecarboxamide] | 303
COc1cncc(-c2ccc(NC(=O)C3CC3C3CCCCC3)cc2-c2nnn[nH]2)c1 (racemic) [Example 24, 2-Cyclohexyl-N-[4-(5-methoxypyridin-3-yl)-3-(1H-tetrazol-5-yl)phenyl]cyclopro-panecarboxamide] | 310
COc1cncc(-c2ccc(NC(=O)C3CC3c3cccc(C)c3)cc2-c2nnn[nH]2)c1 (racemic) [Example 25, N-[4-(5-Methoxypyridin-3-yl)-3-(1H-tetrazol-5-yl)phenyl]-2-(3-methylphenyl)cyclopro-panecarboxamide] | 520
COc1cncc(-c2ccc(NC(=O)C3CC3c3ccc(Cl)cc3)cc2-c2nnn[nH]2)c1 (racemic) [Example 26, 2-(4-Chlorophenyl)-N-[4-(5-methoxypyridin-3-yl)-3-(1H-tetrazol-5-yl)phenyl]cyclopro-panecarboxamide] | 372
O=C(Nc1ccc(-c2ccc(C(F)(F)F)nc2)c(-c2nnn[nH]2)c1)C1CC1C1CCCCC1 (racemic) [Example 30, 2-Cyclohexyl-N-{3-(1H-tetrazol-5-yl)-4-[6-(trifluoromethyl)pyridin-3-yl]phenyl}cyclopro-panecarboxamide] | 3300
CCOc1ccc(-c2ccc(NC(=O)C3CC3C3CCCCC3)cc2-c2nnn[nH]2)cc1OC (racemic) [Example 31, 2-cyclohexyl-N-[4′-ethoxy-3′-methoxy-2-(1H-tetrazol-5-yl)biphenyl-4-yl]cyclopropane-carboxamide] | 27
COCc1ccc(-c2ccc(NC(=O)C3CC3c3ccc(Cl)cc3)cc2-c2nnn[nH]2)cc1C (racemic) [Example 32, 2-(4-chlorophenyl)-N-[4′-(methoxymethyl)-3′-methyl-2-(1H-tetrazol-5-yl)biphenyl-4-yl]cyclopro-panecarboxamide] | 22
